Laboratory results reported in patent US5688787A, “Substituted β-lactam compounds useful as hypochlesterolemic agents and processes for the preparation thereof” (priority 1996, dated 1997).
Where two headings read alike, the source gives them in different places.

What was measured:
ACAT = biological target: T1, ACAT (Rattus norvegicus, UniProt Q7TQM4); test: ACAT Assay (in vitro); format: biochemical; settings: for inhibition at 10 µM: Conc. 10 µM
T1 construct: Rat liver microsomes are used as the source of ACAT; from tissue; host or cells: rat liver microsomes
T1 sequence (Q7TQM4 1-524): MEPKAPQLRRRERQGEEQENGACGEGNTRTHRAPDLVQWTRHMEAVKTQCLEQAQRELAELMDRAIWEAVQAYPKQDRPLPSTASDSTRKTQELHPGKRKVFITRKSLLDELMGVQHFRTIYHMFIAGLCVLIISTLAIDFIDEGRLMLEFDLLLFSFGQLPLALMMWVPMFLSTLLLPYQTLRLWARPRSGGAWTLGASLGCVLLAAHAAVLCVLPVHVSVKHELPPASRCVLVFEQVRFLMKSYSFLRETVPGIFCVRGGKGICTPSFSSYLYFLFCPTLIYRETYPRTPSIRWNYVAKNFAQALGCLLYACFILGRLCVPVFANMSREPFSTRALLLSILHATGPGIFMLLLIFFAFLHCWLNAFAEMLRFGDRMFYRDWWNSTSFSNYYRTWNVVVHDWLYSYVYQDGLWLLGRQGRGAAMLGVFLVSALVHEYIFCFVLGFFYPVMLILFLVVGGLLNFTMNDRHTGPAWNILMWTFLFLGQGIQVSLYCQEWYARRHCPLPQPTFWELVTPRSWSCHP

Hyperlipidemic Hamster = test: In Vivo Assay of Hypolipidemic Agents Using the Hyperlipidemic Hamster; settings: Mesocricetus auratus, po, 168 h, 7 days, percent change versus control, negative = lowering; for change in vivo at 50 mg/kg: 50 mg/kg once daily oral; for change in vivo at 100 mg/kg: 100 mg/kg once daily oral
Summary of the method: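 Hamsters, six per group, were fed chow with 0.5% cholesterol for seven days and given compound once daily by oral gavage in corn oil; controls received corn oil alone. Plasma (EDTA) and liver lipids were measured at sacrifice. Values are percent change versus control, so negative means lowering.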

[1] = negative = apparent stimulation, read-out: ACAT (in vitro) % Inhib.
[2] = read-out: % Reduction (in vivo) Cholest. Esters
[3] = read-out: % Reduction (in vivo) Serum Cholest.
[4] = rat liver microsomes, read-out: ACAT (in vitro) IC50

| inhibition at 10 µM (ACAT; [1]) [%] | inhibition at 25 µM (ACAT; Conc. 25 µM, negative = apparent stimulation, read-out: ACAT (in vitro) % Inhib.) [%] | IC50 (ACAT; [4]) [µM] | Structure (SMILES) | IC50 (ACAT) [µM] | change in vivo at 50 mg/kg (Hyperlipidemic Hamster; [2]) [%] | change in vivo at 50 mg/kg (Hyperlipidemic Hamster; [3]) [%] | change in vivo at 100 mg/kg (Hyperlipidemic Hamster; [2]) [%] | change in vivo at 100 mg/kg (Hyperlipidemic Hamster; [3]) [%] |
| --- | --- | --- | --- | --- | --- | --- | --- | --- |
| 44 | – | – | COc1ccc(N2C(=O)[C@H](CCCc3ccccc3)[C@@H]2c2ccc(SC)cc2)cc1 (relative stereo) [Example 1AU] | – | -21 | 0 | – | – |
| -16 | – | – | COc1ccc(N2C(=O)[C@H](CCCc3ccccc3)[C@@H]2c2ccc(OC)c(OC)c2)cc1 (relative stereo) [Example 1BB] | – | 0 | 0 | – | – |
| 30 | – | – | COc1ccc(N2C(=O)[C@H](CCCc3ccccc3)[C@@H]2c2ccoc2)cc1 (relative stereo) [Example 1BE] | – | -21 | -10 | – | – |
| -17 | – | – | COc1ccc(N2C(=O)[C@H](CCCc3ccccc3)[C@H]2c2ccoc2)cc1 (relative stereo) [Example 1BF] | – | -23 | 0 | – | – |
| 3 | – | – | COc1ccc(N2C(=O)[C@H](CCCc3ccccc3)[C@H]2c2ccc(C(F)(F)F)cc2)cc1 (relative stereo) [Example 1BG] | – | 0 | 12 | – | – |
| 50 | – | – | COc1ccc(N2C(=O)[C@H](CCCc3ccccc3)[C@@H]2c2ccc(C(F)(F)F)cc2)cc1 (relative stereo) [Example 1BH] | – | 0 | 0 | – | – |
| 56 | – | – | COc1ccc(N2C(=O)[C@H](CCCc3ccccc3)[C@@H]2c2ccsc2)cc1 (relative stereo) [Example 1BJ] | – | 0 | 0 | – | – |
| 55 | – | – | COc1ccc(N2C(=O)[C@H](CCCc3ccccc3)[C@@H]2c2cccc(OC(F)(F)F)c2)cc1 (relative stereo) [Example 1BK] | – | 0 | 0 | – | – |
| 42 | – | – | COc1ccc(N2C(=O)[C@@H](CCCc3ccccc3)[C@@H]2c2cccc(OC(F)(F)F)c2)cc1 (relative stereo) [Example 1BL] | – | 0 | -10 | – | – |
| 38 | – | – | COc1ccc(N2C(=O)[C@H](CCCc3ccccc3)[C@@H]2c2ccc(C)cc2)cc1 (relative stereo) [Example 1BM] | – | -21 | 0 | – | – |
| – | – | 7 | COc1ccc(N2C(=O)[C@H](CCCc3ccccc3)[C@@H]2c2ccc(OCc3ccccc3)cc2)cc1 (relative stereo) [Example 1BN] | – | 0 | -16 | – | – |
| 79 | – | 5.4 | CCOc1ccc([C@H]2[C@@H](CCCc3ccccc3)C(=O)N2c2ccc(OC)cc2)cc1 (relative stereo) [Example 1BO] | – | -93 | -48 | – | – |
| 58 | – | – | COc1ccc(N2C(=O)[C@@H](CCCc3ccccc3)[C@@H]2c2ccsc2)cc1 (relative stereo) [Example 1BP] | – | 0 | -9 | – | – |
| 28 | – | – | COc1ccc(N2C(=O)[C@H](CCCc3ccccc3)[C@@H]2c2ccccc2)cc1 (relative stereo) [Example 1B] | – | 0 | 0 | – | – |
| 46 | – | – | COc1ccc([C@H]2[C@@H](CCc3ccccc3)C(=O)N2c2ccc(OC)cc2)cc1 (relative stereo) [Example 1CC] | – | 0 | 0 | – | – |
| 84 | – | 7 | COc1ccc([C@H]2[C@@H](CCOc3ccccc3)C(=O)N2c2ccc(OC)cc2)cc1 (relative stereo) [Example 1CD] | – | -23 | 0 | – | – |
| 15 | – | – | COc1ccc([C@H]2[C@@H](CCCCCCc3ccccc3)C(=O)N2c2ccc(OC)cc2)cc1 (relative stereo) [Example 1CE] | – | -17 | -19 | – | – |
| 26 | – | – | COc1ccc([C@H]2[C@@H](CCCCc3ccccc3)C(=O)N2c2ccc(OC)cc2)cc1 (relative stereo) [Example 1CI] | – | -23 | -8 | – | – |
| 22 | – | – | COc1ccc(N2C(=O)[C@@H](CCCc3ccccc3)[C@@H]2c2ccccc2)cc1 (relative stereo) [Example 1C] | – | -15 | -6 | – | – |
| 21 | – | – | COc1ccc(N2C(=O)[C@@H](CCCc3ccccc3)[C@@H]2c2ccc([N+](=O)[O-])cc2)cc1 (relative stereo) [Example 1G] | – | 0 | -11 | – | – |
| 57 | – | – | COc1ccc(N2C(=O)[C@H](CCCc3ccccc3)[C@@H]2c2ccc([N+](=O)[O-])cc2)cc1 (relative stereo) [Example 1H] | – | -51 | -21 | – | – |

Second part, the compound before the results:

| Structure (SMILES) | inhibition at 10 µM (ACAT; [1]) [%] | inhibition at 25 µM (ACAT; Conc. 25 µM, negative = apparent stimulation, read-out: ACAT (in vitro) % Inhib.) [%] | IC50 (ACAT; [4]) [µM] | IC50 (ACAT) [µM] | change in vivo at 50 mg/kg (Hyperlipidemic Hamster; [2]) [%] | change in vivo at 50 mg/kg (Hyperlipidemic Hamster; [3]) [%] | change in vivo at 100 mg/kg (Hyperlipidemic Hamster; [2]) [%] | change in vivo at 100 mg/kg (Hyperlipidemic Hamster; [3]) [%] |
| --- | --- | --- | --- | --- | --- | --- | --- | --- |
| COc1ccc(N2C(=O)[C@H](CCCc3ccccc3)[C@H]2c2ccc(CO[Si](C)(C)C(C)(C)C)cc2)cc1 (relative stereo) [Example 1AS] | 83 | – | – | 1 | -19 | 0 | – | – |
| COc1ccc(N2C(=O)[C@H](CCCc3ccccc3)[C@@H]2c2ccc(CO[Si](C)(C)C(C)(C)C)cc2)cc1 (relative stereo) [Example 1AT] | 70 | – | – | 5 | -28 | 0 | – | – |
| COc1ccc(N2C(=O)[C@](C(=O)Cc3ccccc3)(c3ccccc3)[C@@H]2c2ccccc2)cc1 (relative stereo) [Example 1A] | – | 83 | – | – | – | – | -26 | -10 |
| COc1ccc(N2C(=O)[C@H](CCCc3ccccc3)[C@@H]2c2ccco2)cc1 (relative stereo) [Example 1BC] | -2 | – | – | – | 0 | 0 | – | – |
| COc1ccc(N2C(=O)[C@H](CCCc3ccccc3)[C@H]2c2ccco2)cc1 (relative stereo) [Example 1BD] | 17 | – | – | – | -25 | 0 | – | – |
| COc1ccc(N2C(=O)[C@H](CCCc3ccccc3)[C@@H]2c2cccs2)cc1 (relative stereo) [Example 1BI] | 59 | – | – | – | -45 | -17 | – | – |
| COc1ccc(N2C(=O)[C@@H](CCCc3ccccc3)[C@@H]2c2cccs2)cc1 (relative stereo) [Example 1BQ] | 35 | – | – | – | -17 | 0 | – | – |
| COc1ccc([C@H]2[C@@H](CCCC3CCCCC3)C(=O)N2c2ccc(OC)cc2)cc1 (relative stereo) [Example 1CF] | 53 | – | – | – | -47 | -23 | – | – |
| COc1ccc([C@H]2[C@@H](CCOc3ccc(F)cc3)C(=O)N2c2ccc(OC)cc2)cc1 (relative stereo) [Example 1CG] | 8 | – | – | – | -61 | -30 | – | – |
| CC[C@@]1(c2ccccc2)C(=O)N(c2ccc(OC)cc2)[C@H]1c1ccc(OC)cc1 (relative stereo) [Example 1CK] | -12 | – | – | – | -28 | 0 | – | – |
| CCCCCCCCCC[C@@H]1C(=O)N(c2ccc(OC)cc2)[C@@H]1c1ccc(OC)cc1 (relative stereo) [Example 1CL] | 89 | – | – | – | -18 | 0 | – | – |
| COc1ccc(N2C(=O)[C@H](CCCc3ccccc3)[C@@H]2c2ccc3c(c2)OCO3)cc1 (relative stereo) [Example 1CN] | -28 | – | – | – | 0 | 0 | – | – |
| COc1ccc(N2C(=O)[C@@H](CCc3ccccc3)[C@H]2c2ccccc2)cc1 (relative stereo) [Example 1D] | 39 | – | – | – | 0 | 0 | – | – |
| COc1ccc(N2C(=O)[C@@H](CCCc3ccccc3)[C@@H]2C=Cc2ccccc2)cc1 (relative stereo) [Example 1K] | -70 | – | – | – | 0 | 0 | – | – |
